Data as given in US10899723B2, “Heterocyclic containing cyclopropyl FXR modulators” (Hepagene Therapeutics (HK) Limited, priority 2016, dated 2021).

Legend:
FXR-LBD = molecular target: T1, FXR-LBD (Homo sapiens, UniProt Q96RI1); assay: FXR Coactivator Assay (LanthaScreen TR-FRET); format: biochemical
T1 construct: Add 5 μl of 4×FXR-LBD to 384 well assay plates; purchased
T1 sequence (Q96RI1 262-486 limits assumed): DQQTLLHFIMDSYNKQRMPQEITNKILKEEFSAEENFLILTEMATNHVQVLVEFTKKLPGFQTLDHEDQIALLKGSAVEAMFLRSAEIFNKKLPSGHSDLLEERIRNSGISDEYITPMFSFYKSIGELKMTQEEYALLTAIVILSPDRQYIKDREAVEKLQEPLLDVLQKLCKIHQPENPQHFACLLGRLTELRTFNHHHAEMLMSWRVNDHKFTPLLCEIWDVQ
Method: (§1) • 1. Hek293T cells were plated at 1.1*10^6/ml into a 100 mm dish. • 2. Cells were transfected with 8.4 μg of pBind-FXR, 1.26 μg of the reporter vector pGL4.35 (Promega). Cells were incubated at 37° C. under 5% CO2 atmosphere. • 3. All of compounds were 3-fold serial diluted from 10 mM stock for 10 doses in DMSO. • 4. Transfer compound dilutions into 384 well assay plates using liquid workstation. • 5. Seed 25 ul HEK293T cells into 384 well assay plate (prepared step 4) at 0.6*10^5/ml. Cells were incubated at 37° C. under 5% CO2 atmosphere overnight. • 6. Add 25 ul steady-Glo™ Luciferase Assay Reagent into each well of 384-well assay plate. • 7. Record the luminescence value on Envision 2104 plate reader. • 8. Calculate EC50 by fitting % Activity values and log of compound concentrations to nonlinear regression (dose response−variable slope) with Graphpad 5.0. FXR Coactivator Assay Reagents: LanthaScreen™ TR-FRET Farnesoid X Receptor Coactivator Assay GW4064 as a positive control Process: • 1. All of compounds were 3-fold serial diluted from 10 mM stock for 10 doses in DMSO. • 2. Dilute each 100× agonist serial dilution to 2× using Complete Coregulator buffer G. • 3. Transfer 10 μl of each of the 2× agonist serial dilutions to 384 well assay plates. • 4. […] Incubate at room temperature protected from light. • 7. Read the plate at wavelengths of 520 nm and 495 nm on Envision 2104 plate reader. • 8. Calculate the TR-FRET ratio by dividing the emission signal at 520 nm by the emission signal at 495 nm. • 9. Calculate EC50 by fitting % Activity values and log of compound concentrations to nonlinear regression (dose response−variable slope) with Graphpad 5.0.

FXR = molecular target: T2, FXR (Homo sapiens, UniProt Q96RI1); assay: FXR Transactivation Assay (pBIND-FXR / pGL4.35 luciferase reporter in HEK293T); format: cell-based; settings: HEK293T cells
T2 construct: expressed in transfected cells; host or cells: HEK293T
T2 sequence (Q96RI1 1-486): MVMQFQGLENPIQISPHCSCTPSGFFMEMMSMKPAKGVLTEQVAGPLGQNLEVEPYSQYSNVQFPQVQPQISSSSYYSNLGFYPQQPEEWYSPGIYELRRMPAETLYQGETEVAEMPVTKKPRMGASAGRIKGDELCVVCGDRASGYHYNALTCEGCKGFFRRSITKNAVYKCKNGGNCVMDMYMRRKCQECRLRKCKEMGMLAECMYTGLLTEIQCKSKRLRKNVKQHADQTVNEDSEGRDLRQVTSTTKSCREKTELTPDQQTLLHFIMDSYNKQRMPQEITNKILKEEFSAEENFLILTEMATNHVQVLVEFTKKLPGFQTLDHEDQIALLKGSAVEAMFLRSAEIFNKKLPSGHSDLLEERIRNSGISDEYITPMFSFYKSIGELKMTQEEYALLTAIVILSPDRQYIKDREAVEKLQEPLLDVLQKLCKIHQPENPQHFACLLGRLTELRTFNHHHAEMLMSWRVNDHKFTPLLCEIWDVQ
Method: FXR Transactivation Assay
pGL4.35 [luc2P/9XGAL4 UAS/Hygro]
DMEM medium, high glucose
Fetal Bovine Serum (FBS, heat-inactivated)
Penicillin-Streptomycin (10000 U/ml, 100 ml)
DMEM, High Glucose, HEPES, no Phenol Red
Opti-MEM® I Reduced Serum Medium
Steady-Glo™ Luciferase Assay System
TransIT-293 Transfection Reagent
GW4064 as a positive control
as §1

Compound | EC50 (FXR-LBD) [nM] | EC50 (FXR) [nM]
CC(C)c1onc(-c2c(Cl)cccc2Cl)c1COc1ccc(C2CC2(C)c2cncc(C(=O)O)c2)c(Cl)c1 (single isomer, unassigned) [IV-05-2, 5-[2-(2-Chloro-4-[[3-(2,6-dichlorophenyl)-5-(propan-2-yl)-1,2-oxazol-4-yl]methoxy]phenyl)-1-methylcyclopropyl] pyridine-3-carboxylic Acid] | 10 to 100 | 101 to 400
CC(C)c1onc(-c2c(Cl)cccc2Cl)c1COc1ccc(C2CC2(C)c2cncc(C(=O)O)c2)c(Cl)c1 (stereo not drawn) [IV-05, 5-[2-(2-Chloro-4-[[3-(2,6-dichlorophenyl)-5-(propan-2-yl)-1,2-oxazol-4-yl]methoxy]phenyl)-1-methylcyclopropyl] pyridine-3-carboxylic Acid] | 10 to 100 | 10 to 100
CC(C)c1onc(-c2c(Cl)cccc2Cl)c1COc1ccc(C2(C)CC2c2cccc(C(=O)O)c2)c(Cl)c1 (stereo not drawn) [VI-02] | 10 to 100 | 10 to 100
CC1(c2cncc(C(=O)O)c2)CC1c1ccc(OCc2c(-c3c(Cl)cccc3Cl)noc2C2CC2)cc1Cl (stereo not drawn) [IV-06, 5-[2-(2-Chloro-4-[[5-cyclopropyl-3-(2,6-dichlorophenyl)-1,2-oxazol-4-yl]methoxy]phenyl)-1-methylcyclopropyl] pyridine-3-carboxylic Acid] | 10 to 100 | 10 to 100
COc1cc(C(=O)O)cc2sc(C3(C)CC3c3ccc(OCc4c(-c5c(Cl)cccc5Cl)noc4C4CC4)cc3Cl)nc12 (stereo not drawn) [IV-15, 2-[2-(2-Chloro-4-[[5-cyclopropyl-3-(2,6-dichlorophenyl)-1,2-oxazol-4-yl]methoxy]phenyl)-1-methylcyclopropyl]-4-methoxy-1,3-benzothiazole-6-carboxylic Acid] | 10 to 100 | 101 to 400
CC(C)c1onc(-c2c(Cl)cccc2Cl)c1COc1ccc(C2(C)CC2c2ccc(C(=O)O)cc2)c(Cl)c1 (stereo not drawn) [VI-01, 4-(2-(2-Chloro-4-((3-(2,6-dichlorophenyl)-5-isopropylisoxazol-4-yl)methoxy)phenyl)-2-methylcyclopropyl) benzoic Acid] | 10 to 100 | 101 to 400
CC1(c2ccc(OCc3c(-c4c(Cl)cccc4Cl)noc3C3CC3)cc2Cl)CC1c1cncc(C(=O)O)c1 (stereo not drawn) [VI-05] | 10 to 100 | 10 to 100
CC1(c2cccc(C(=O)O)c2)CC1c1ccc(OCc2c(-c3c(Cl)cccc3Cl)noc2C2CC2)cc1Cl (stereo not drawn) [IV-03] | 10 to 100 | 101 to 400
CC(C)c1onc(-c2c(Cl)cccc2Cl)c1COc1ccc(C2CC2(C)c2ccc(C(=O)O)cc2)c(Cl)c1 (stereo not drawn) [IV-01] | 101 to 400 | 401 to 5000
CC(C)c1onc(-c2c(Cl)cccc2Cl)c1COc1ccc(C2CC2(C)c2cncc(C(=O)O)c2)c(Cl)c1 (single isomer, unassigned) [IV-05-1, 5-[2-(2-Chloro-4-[[3-(2,6-dichlorophenyl)-5-(propan-2-yl)-1,2-oxazol-4-yl]methoxy]phenyl)-1-methylcyclopropyl] pyridine-3-carboxylic Acid] | 10 to 100 | 10 to 100
CC(C)c1onc(-c2c(Cl)cccc2Cl)c1COc1ccc(C2CC2(C#N)c2cccc(C(=O)O)c2)c(Cl)c1 (stereo not drawn) [Compound V-02] | 10 to 100 | 101 to 400
CC(C)c1onc(-c2c(Cl)cccc2Cl)c1COc1ccc(C2CC2(C)c2cccc(C(=O)O)c2)c(Cl)c1 (stereo not drawn) [IV-02] | 10 to 100 | 101 to 400
N#CC1(c2ccc(OCc3c(-c4c(Cl)cccc4Cl)noc3C3CC3)cc2Cl)CC1c1cccc(C(=O)O)c1 (stereo not drawn) [VII-03, 3-[2-(2-Chloro-4-[[5-cyclopropyl-3-(2,6-dichlorophenyl)-1,2-oxazol-4-yl]methoxy]phenyl)-2-cyanocyclopropyl] benzoic Acid] | 10 to 100 | 10 to 100
N#CC1(c2ccc(OCc3c(-c4c(Cl)cccc4Cl)noc3C3CC3)cc2Cl)CC1c1cccc(C(=O)O)c1 (single isomer, unassigned) [VII-03-1, 3-[2-(2-Chloro-4-[[5-cyclopropyl-3-(2,6-dichlorophenyl)-1,2-oxazol-4-yl]methoxy]phenyl)-2-cyanocyclopropyl] benzoic Acid] | 10 to 100 | 101 to 400
CC(C)c1onc(-c2c(Cl)cccc2Cl)c1COc1ccc(C2(C#N)CC2c2cccc(C(=O)O)c2)c(Cl)c1 (stereo not drawn) [VII-02, 3-[2-(2-Chloro-4-[[3-(2,6-dichlorophenyl)-5-(propan-2-yl)-1,2-oxazol-4-yl]methoxy]phenyl)-2-cyanocyclopropyl] benzoic Acid] | 10 to 100 | 101 to 400
CC(C)c1onc(-c2c(Cl)cccc2Cl)c1COc1ccc(C2CC2(C)c2cc(C(=O)O)nn2C(C)C)c(Cl)c1 (stereo not drawn) [IV-20] | 10 to 100 | 101 to 400
CC(C)c1onc(-c2c(Cl)cccc2Cl)c1COc1ccc(C2(C#N)CC2c2ccc(C(=O)O)cc2)c(Cl)c1 (stereo not drawn) [VII-01] | 10 to 100 | 401 to 5000
CC(C)c1onc(-c2c(Cl)cccc2Cl)c1COc1ccc(C2(C)CC2c2cncc(C(=O)O)c2)c(Cl)c1 (stereo not drawn) [VI-04, 5-[2-(2-Chloro-4-[[3-(2,6-dichlorophenyl)-5-(propan-2-yl)-1,2-oxazol-4-yl]methoxy]phenyl)-2-methylcyclopropyl] pyridine-3-carboxylic Acid] | 10 to 100 | 10 to 100
